One series concerns Staphylococcus aureus. The series is described as follows: MIC against ribosome-based resistance phenotypes. Type of series: cell-based. As to conditions: read-out: Minimum Inhibitory Concentration (MIC). An excerpt: (§1) Furthermore, the antibiotic compounds can be assayed for anti-proliferative or anti-infective properties on a cellular level. For example, where the target organism is a microorganism, the activity of compounds of interest can be assayed by growing the microorganisms of interest in media either containing or lacking the compound. Growth inhibition can be indicative that the molecule could be acting as a protein synthesis inhibitor. […] For this purpose, a panel of bacterial strains can be assembled to include a variety of target pathogenic species, some containing resistance mechanisms that have been characterized. Use of such a panel of organisms permits the determination of structure-activity relationships not only in regards to potency and spectrum, but also with a view to obviating resistance mechanisms.

Another series has as its system Enterococcus faecalis. The series is described as follows: MIC against ribosome-based resistance phenotypes. Type of series: cell-based. As to conditions: read-out: Minimum Inhibitory Concentration (MIC).
Excerpt: as §1

Series [1] has as its system B. fragilis. The series is described as follows: Broth microdilution MIC. In kind it is cell-based. As to conditions: Bacteroides fragilis, ATCC25285; B. fragilis ATCC 25285.
For series [2], the system named is B. fragilis. The series is described as follows: Agar dilution MIC (CLSI reference method). As to conditions: Bacteroides fragilis, ATCC25285; B. fragilis ATCC 25285. In kind it is cell-based. (In general: In agar dilution, organisms are placed on agar that contains the substance at set levels.)
Series [3] deals with S. aureus. The series is described as follows: Broth microdilution MIC. In kind it is cell-based. The conditions noted are these: Staphylococcus aureus, ATCC29213; S. aureus ATCC 29213.
Series [4] deals with F. magna. The series is described as follows: Broth microdilution MIC. Type of series: cell-based. The conditions noted are these: Finegoldia magna, ATCC15794; F. magna ATCC 15794.
The subject of series [5] is F. magna. The series is described as follows: Agar dilution MIC (CLSI reference method). In kind it is cell-based. As to conditions: Finegoldia magna, ATCC15794; F. magna ATCC 15794.
Series [6] concerns G. vaginalis. The series is described as follows: Agar dilution MIC (CLSI reference method). The conditions noted are these: Gardnerella vaginalis. In kind it is cell-based.
Series [7] concerns P. granulosum. The series is described as follows: Broth microdilution MIC. In kind it is cell-based. The conditions noted are these: P. granulosum ATCC 25746. On the technique in general: Dilution methods test growth across graded concentrations, often in twofold steps.
For another series, the system named is P. acnes. The series is described as follows: Agar dilution MIC (CLSI reference method). In kind it is cell-based. As to conditions: Cutibacterium acnes.
The subject of series [8] is G. vaginalis. The series is described as follows: Broth microdilution MIC. In kind it is cell-based. As to conditions: Gardnerella vaginalis.
The subject of series [9] is P. granulosum. The series is described as follows: Agar dilution MIC (CLSI reference method). In kind it is cell-based. As to conditions: P. granulosum ATCC 25746.
For the next series, the system named is B. thetaiotaomicron. The series is described as follows: microbe, parasite or virus in culture. In kind it is cell-based. As to conditions: Bacteroides thetaiotaomicron, ATCC29741, read-out: MIC, broth microdilution.
The subject of series [10] is S. aureus. The series is described as follows: Agar dilution MIC (CLSI reference method). Type of series: cell-based. The conditions noted are these: Staphylococcus aureus, ATCC29213; S. aureus ATCC 29213. Here is the method: Susceptibility testing was performed by the agar dilution reference method (radezolid, linezolid, and clindamycin) and broth microdilution method (all agents) as described by the Clinical and Laboratory Standards Institute (CLSI).
For the agar dilution method, Brucella agar (BBL, 211086) was prepared according to the manufacturer's instructions and cooled to 48-50° C. in a water bath. Once the agar was cooled, it was supplemented with 10 mL of hemin+vitamin K1 Solution (Remel, R450951), 1 mL of 1 mg/mL vitamin K1 working solution (Sigma, V3501), and 50 mL laked sheep blood (Remel, R54004). The media was dispensed into 50 mL centrifuge tubes and held at 48-50° C. […] The diluted antimicrobial agents were added to the dispensed media, gently mixed, and poured into sterile petri dishes. Once hardened, the plates were held in anaerobic jars at room temperature and used the following day. […]
On the day of testing, a 0.5 McFarland equivalent of each isolate was prepared in Brucella broth with hemin+vitamin K1. […] BRU plates and those containing compound were incubated at 35° C. in an anaerobic environment for 24 hours, read, and re-incubated for an additional 24 hours followed by a final reading. […] Following incubation, MICs were determined as the lowest concentration showing a marked reduction in growth or no growth compared to the growth control plate.

Series [11] in a line: Long-term rat safety study. In kind it is in vivo. As to conditions: rat, in vivo, 100 mg/kg/day. An excerpt:
There was 100% survival in all dose groups.

The test system of the next series is Enterococcus faecium. The series is described as follows: MIC against ribosome-based resistance phenotypes. The conditions noted are these: Enterococcus faecium A6349; VanA + Lin-R (G2576U); read-out: Minimum Inhibitory Concentration (MIC). Type of series: cell-based.
Excerpt: as §1, with “mechanisms. The assays can be performed in microtiter trays according to conventional methodologies as published by The National Committee for Clinical Laboratory Standards (NCCLS) guidelines (NCCLS. M7-A5-Methods for Dilution Antimicrobial Susceptibility Tests for Bacteria That Grow Aerobically; Approved Standard-Fifth Edition. NCCLS Document M100-S12/M7 (ISBN 1-56238-394-9)).” for “mechanisms.”

The conditions of series [12]: in vivo.
The mark [13] stands for this setting: ATCC29212, Enterococcus faecalis ATCC29212-P5, Lin-R (G2576U).
Setting [14] is: ATCC14018, G. vaginalis ATCC 14018.
[15] abbreviates: ATCC49145, G. vaginalis ATCC 49145.

Data on 7 compounds can be found in patent US10471046B2, “Method for treating, preventing, or reducing the risk of skin infection” (Melinta Subsidiary Corp., priority 2014, dated 2019).

Molecules are shown by their SMILES. Values after ≈ are worked out from the molar mass of the structure shown. Like-named read-outs stand apart in the source and are kept apart here. A value given as a limit tells only on which side of the number the result lay.

For the compound `CC[C@H]1OC(=O)[C@H](C)[C@@H](O[C@H]2C[C@@](C)(OC)[C@@H](O)[C@H](C)O2)[C@H](C)[C@@H](O[C@@H]2O[C@H](C)C[C@H](N(C)C)[C@H]2O)[C@](C)(O)C[C@@H](C)CN(C)[C@H](C)[C@@H](O)[C@]1(C)O` [Azithromycin, azithromycin], the MIC in the series on Staphylococcus aureus (ATCC29213, Staphylococcus aureus ATCC29213, phenotype QC) is 1 µg/mL (≈ 1.34 µM); with Enterococcus faecalis (ATCC29212, Enterococcus faecalis ATCC29212, phenotype QC) it was 8 µg/mL (≈ 10.7 µM); in the series with Enterococcus faecalis (setting [13]) it was 8 µg/mL (≈ 10.7 µM); with Enterococcus faecalis, 128 µg/mL (≈ 171 µM).
As for `CCC[C@@H]1C[C@@H](C(=O)N[C@@H]([C@H]2O[C@H](SC)[C@H](O)[C@@H](O)[C@H]2O)[C@H](C)Cl)N(C)C1` [Clindamycin, clindamycin], the MIC in the series on B. fragilis [1] turned out to be 1 µg/mL (≈ 2.35 µM); in the series with B. fragilis [2], 2 µg/mL (≈ 4.71 µM); in the series on S. aureus [3] it was 0.25 µg/mL (≈ 0.588 µM); against F. magna [4], 0.5 µg/mL (≈ 1.18 µM); against F. magna [5], 1 µg/mL (≈ 2.35 µM); against G. vaginalis [6] (setting [14]) it was 0.25 µg/mL (≈ 0.588 µM). Moreover, the MIC was 0.125 µg/mL (≈ 0.294 µM) against G. vaginalis [6] (setting [15]); 1 µg/mL (≈ 2.35 µM) against P. granulosum [7]; at most 0.06 µg/mL in the series on P. acnes (ATCC11827, P. acnes ATCC 11827); 0.125 µg/mL (≈ 0.294 µM) in the series with P. acnes (ATCC11828, P. acnes ATCC 11828); at most 0.06 µg/mL in the series on P. acnes (ATCC29399, P. acnes ATCC 29399); 0.125 µg/mL (≈ 0.294 µM) against G. vaginalis [8] (setting [14]). Besides, the MIC against G. vaginalis [8] (setting [15]) was at most 0.06 µg/mL; with P. granulosum [9], 1 µg/mL (≈ 2.35 µM).
In the case of `CC[C@H]1OC(=O)[C@H](C)[C@@H](O[C@H]2C[C@@](C)(OC)[C@@H](O)[C@H](C)O2)[C@H](C)[C@@H](O[C@@H]2O[C@H](C)C[C@H](N(C)C)[C@H]2O)[C@](C)(O)C[C@@H](C)C(=O)[C@H](C)[C@@H](O)[C@]1(C)O` [ERY, erythromycin], the MIC against B. fragilis [1] was 16 µg/mL (≈ 21.8 µM); with B. thetaiotaomicron, 16 µg/mL (≈ 21.8 µM); in the series on S. aureus [3], 1 µg/mL (≈ 1.36 µM); in the series on F. magna [4], 4 µg/mL (≈ 5.45 µM); with P. granulosum [7] it was 16 µg/mL (≈ 21.8 µM); in the series with G. vaginalis [8] (setting [14]), at most 0.06 µg/mL. In the series on G. vaginalis [8] (setting [15]), this compound registered an MIC of at most 0.06 µg/mL.
With `CC(=O)NC[C@H]1CN(c2ccc(N3CCOCC3)c(F)c2)C(=O)O1` [Linezolid, linezolid], the MIC with B. fragilis [1] was 2 µg/mL (≈ 5.93 µM); against S. aureus [10] it was 2 µg/mL (≈ 5.93 µM); with Staphylococcus aureus (Staphylococcus aureus A7820, Lin-R (G2576U) + Mac-R (ErmC)), 64 µg/mL; in the series on Enterococcus faecalis (setting [13]), 32 µg/mL (≈ 94.9 µM); in the series on F. magna [4], 1 µg/mL (≈ 2.96 µM); against F. magna [5], 2 µg/mL (≈ 5.93 µM). For the same compound, the MIC against G. vaginalis [6] (setting [14]) came out at 0.5 µg/mL (≈ 1.48 µM); with G. vaginalis [6] (setting [15]), 0.5 µg/mL (≈ 1.48 µM); in the series on P. granulosum [7] it was 1 µg/mL (≈ 2.96 µM); in the series on P. acnes (ATCC11827, P. acnes ATCC 11827), 0.5 µg/mL (≈ 1.48 µM); in the series on P. acnes (ATCC11828, P. acnes ATCC 11828) it was 0.5 µg/mL (≈ 1.48 µM); with P. acnes (ATCC29399, P. acnes ATCC 29399), 0.5 µg/mL (≈ 1.48 µM). Besides, the MIC in the series with G. vaginalis [8] (setting [14]) is 0.5 µg/mL (≈ 1.48 µM); in the series with G. vaginalis [8] (setting [15]), 0.5 µg/mL (≈ 1.48 µM); in the series on Enterococcus faecium, 16 µg/mL; in the series with P. granulosum [9], 2 µg/mL (≈ 5.93 µM). For the same compound, the “cellularity of sternal and femoral bone marrow” value in series [11] is “decreased cellularity of sternal and femoral bone marrow”. In [11], the “red cell mass, absolute reticulocyte and neutrophil counts” value is “decreased red cell mass, absolute reticulocyte and neutrophil counts”.
On to `Cc1ncc([N+](=O)[O-])n1CCO` [MET, metronidazole], for which the MIC against B. fragilis [1] was 0.5 µg/mL (≈ 2.92 µM); in the series with B. thetaiotaomicron, 4 µg/mL (≈ 23.4 µM); in the series on S. aureus [3] it was over 32 µg/mL; against F. magna [4] it was 0.125 µg/mL (≈ 0.73 µM); against P. granulosum [7], 1 µg/mL (≈ 5.84 µM); against G. vaginalis [8] (setting [14]), 8 µg/mL (≈ 46.7 µM). Besides, the MIC with G. vaginalis [8] (setting [15]) came to 4 µg/mL (≈ 23.4 µM).
Turning to `CN(C)[C@@H]1C(O)=C(C(N)=O)C(=O)[C@@]2(O)C(O)=C3C(=O)c4c(O)cccc4[C@@](C)(O)[C@H]3C[C@@H]12` [TET, tetracycline], the MIC against B. fragilis [1] was found to be 0.25 µg/mL (≈ 0.563 µM); with B. thetaiotaomicron, 8 µg/mL (≈ 18 µM); against S. aureus [3] it was 1 µg/mL (≈ 2.25 µM); against F. magna [4] it was 0.25 µg/mL (≈ 0.563 µM); against P. granulosum [7], 0.25 µg/mL (≈ 0.563 µM); against G. vaginalis [8] (setting [14]), 0.5 µg/mL (≈ 1.13 µM). The MIC in the series on G. vaginalis [8] (setting [15]) was over 32 µg/mL.
As for `CC(=O)NC[C@H]1CN(c2ccc(-c3ccc(CNCc4cnn[nH]4)cc3)c(F)c2)C(=O)O1.Cl` [model compound], the “solubility of salt in water” value was 2600 µg/mL (pH 4), 200 µg/mL (pH 5.4) and 60 µg/mL (pH 6.5). Also, under “pH 6.8”, the intrinsic solubility was 10 µg/mL. Besides, the caco-2 permeability in the series with caco-2 came out at 0.5 ×10⁻⁶ cm/s. This compound had a positive food effect in [12] of 4 ×.
